Earlier results in patent US20260000671A1, “CONCENTRATED SOLUTIONS COMPRISING 5,10-METHYLENE-(6R)-TETRAHYDROFOLIC ACID” (Merck Patent GMBH, priority 2022, published 2026).

purity 24 hours following dissolution in water (24 hours following dissolution in water, % normalized purity): 44.9 % of the starting purity
stability profile in words (following dissolution in water, FIG. 1): degraded rapidly over time
purity after 7 hours (re-constituted lyophilizate, after 7 hours): 84%
purity loss per hour (degradation rate, slope of best-fit line) (re-constituted lyophilizate, linear regression of stability profile): 2.3 % purity per hour
SMILES: Nc1nc2c(c(=O)[nH]1)N1CN(c3ccc(C(=O)N[C@@H](CCC(=O)O)C(=O)O)cc3)C[C@H]1CN2 [5,10-methylene-(6R,S)-tetrahydrofolic acid]
